“Also recorded” adds a separate entry of the source. Values belong to the molecule of their own block, whether it stands above or below them. Where a SMILES comes first, the peptide text is derived from it. Bridges are numbered along the chain shown (N, C = ends). [ ]: non-standard residue; d: D form. hArg = N=C(N)NCCCC[C@H](N)C(=O)O; Mpa = O=C(O)CCS
Tests used:
[1] = target: T1, interaction of human fibrinogen and human integrin αIIbβ3 (Homo sapiens, UniProt P05106+P08514); assay: Fibrinogen binding inhibition assay (competitive ELISA)
T1 construct: purchased Enzyme Research Laboratories (South Bend, Ind.)
Method: Wells of a Costar 3690 96-well plate were coated with 100 ng of integrin αIIbβ3 in 50 μl metal buffer at 4° C. overnight. The plate was washed twice with water and blocked with 160 μl of 3% (w/v) skim milk in TBS for 1 h at 37° C. […] The final concentrations were adjusted between 1.3×10^−8 M and 8.0×10^−7 M of Fabs and between 8.9×10^−8 M and 9.1×10^−5 M of synthetic peptides. After incubation for 2 h at 37° C. followed by ten times washing with water and five times washing with 0.05% Tween20 in TBS, 50 μl of 0.5 μg/ml streptavidine-HRP (Pierce) diluted in 3% (w/v) skim milk in TBS was added and incubated for 1 h at 37° C. After washing as above, 50 μl of ABTS substrate solution (Barbas, C. F., 3rd, Burton, D. R., Scott, J. K., and Silverman, G. J. (2001) Phage Display: A Laboratory Manual, Cold Spring Harbor Laboratory Press, Cold Spring Harbor, N.Y.) was added. This experiment was repeated three times at each concentration to get the mean value and standard deviation.

[2] = test system: human platelets; assay: Platelet aggregation assay ex vivo (ADP-induced, lumi-aggregometer); assay type: cell-based; settings: ADP 20 μM; for inhibition of platelet aggregation at 90 μM: peptide 90 μM
Method: Peripheral human blood was collected as described above. Platelet-rich plasma (PRP) was obtained from the collected peripheral blood by centrifugation at 135 g for 15 min. Subsequent centrifugation at 1,500 g for 15 min yielded platelet-poor plasma (PPP). By mixing PRP and PPP, conditioned plasma of 300,000-350,000 platelets per 1 μl of plasma was prepared. […] The platelet aggregation assay was done as described previously (Klinkhardt, U., Kirchmaier, C. M., Westrup, D., Breddin, H. K., Mahnel, R., Graff, J., Hild, M., and Harder, S. (2000) Differential in vitro effects of the platelet glycoprotein IIb/IIIa inhibitors abxicimab or SR121566A on platelet aggregation, fibrinogen binding and platelet secretory parameters. Thromb Res 97, 201-207) using a whole blood lumi-aggregometer (Chrono-log, Havertown, Pa.). The impedance of each sample was monitored until a stable baseline was established (<5 mV drift per minute). To induce platelet aggregation, 9 μl of an ADP solution was added to reach a final concentration of 20 μM. Increase in impedance across a pair of electrodes over time was transmitted through an interface to a personal computer for analysis (AGGRO/LINK, Chrono-log).

[3] = target: integrin αIIbβ3 (Homo sapiens, UniProt P05106+P08514); assay: Inhibition of binding of selected RAD antibodies to integrin by peptides
[4] = test system: human platelets; assay: Flow cytometry, Fab binding to cells; assay type: cell-based; settings: Fab 0.2 μM, peripheral blood
Method: (§1) Peripheral blood was drawn from a healthy volunteer and collected in an ACD tube (Becton Dickinson, San Jose, Calif.). HUVEC were treated for 5 min with 0.05% (w/v) trypsin, 0.53 mM EDTA (Life Technologies), collected by centrifugation at 500 g for […], and resuspended in 1% (w/v) BSA in PBS (phosphate buffered saline). […] After incubation for 40 min at room temperature followed by washing twice with 1% (w/v) BSA in PBS, 10 μl of FITC conjugated anti-human IgG polyclonal antibodies (Sigma-Aldrich) diluted in 750 μl of 1% (w/v) BSA in PBS was added and incubated for 20 min at room temperature. After washing twice with 1% (w/v) BSA in PBS, flow cytometry was performed using a FACStar instrument from Becton Dickinson (San Jose, Calif.).

[5] = test system: HUVEC cells; assay: Flow cytometry, Fab binding to cells; assay type: cell-based, human; settings: Fab 0.2 μM; HUVEC mainly express integrin αvβ3
Method: as §1

[6] = test system: platelets; settings: aggregation induced at 5 μM ADP; read-out: previously reported EC50 of platelet aggregation inhibition; cited from earlier work
[7] = test system: integrins αIIbβ3, αvβ3 and αMβ2; settings: cited from earlier work
[8] = human, in vivo; cited from earlier work

EC50 ([2]; conditioned plasma, read-out: EC50, required concentration for 50% inhibition in a human platelet aggregation assay): 45 nM
Molecule: Abciximab: chimeric Fab with mouse variable and human constant domains, integrin αIIbβ3 inhibitor
binding to human platelets (flow cytometry) [4]: bound to both platelets and HUVEC cells
binding to HUVEC cells (flow cytometry) [5]: bound to both platelets and HUVEC cells
EC50 [6]: 34 nM
reported integrin specificity / cross-reactivity [7]: cross-react with integrin αvβ3 and αMβ2
occurrence of thrombocytopenia after the second administration [8]: 4%

inhibition of the interaction between integrin αIIbβ3 and fibrinogen (in words) [1]: did not inhibit
Molecule: VVCDARRRC (inversed RAD motif peptide) [control peptide with an inversed RAD motif, reference compound]

inhibition of the interaction between integrin αIIbβ3 and fibrinogen (in words) [1]: did not inhibit and not
Molecule: THSRADRRE (listed as Homo sapiens) [linear nonapeptide derived from HCDR3 of clone RAD1]
inhibition of platelet aggregation ex vivo (in words) [2]: not

inhibition of the interaction between integrin αIIbβ3 and fibrinogen (in words) [1]: did not inhibit
Molecule: THSDARRRE (inversed RAD motif peptide) [control peptide with an inversed RAD motif, reference compound]

More lines, now with the values behind:

Molecule: CC(C)[C@H](N)C(=O)N[C@@H](Cc1c[nH]c2ccccc12)C(=O)N[C@H]1CSSC[C@@H](C(=O)O)NC(=O)[C@H](CCCNC(=N)N)NC(=O)[C@H](CCCCN)NC(=O)[C@H](CC(=O)O)NC(=O)[C@H](C)NC(=O)[C@H](CCCNC(=N)N)NC1=O (H-VWCRADKRC-OH; disulfide 3-9; N-terminus and C-terminus assumed)
inhibition of the interaction between integrin αIIbβ3 and fibrinogen (in words) [1]: inhibited; also recorded: strongly inhibited
inhibition of platelet aggregation ex vivo (in words) [2]: inhibited; also recorded: strongly inhibited
inhibition of platelet aggregation at 90 μM [2]: completely inhibited
inhibition of the binding of the selected RAD antibodies to integrin αIIbβ3 [3]: inhibited

Molecule: N=C(N)NCCCC[C@@H]1NC(=O)CCSSC[C@@H](C(N)=O)NC(=O)[C@@H]2CCCN2C(=O)[C@H](Cc2c[nH]c3ccccc23)NC(=O)[C@H](CC(=O)O)NC(=O)CNC1=O [eptifibatide] ([Mpa][hArg]GDWPC-NH2; disulfide 1-7)
reported integrin specificity / cross-reactivity [7]: αIIbβ3-specific
incidence of thrombocytopenia versus placebo [8]: approximately the same

Molecule: CC(C)[C@H](N)C(=O)N[C@@H](Cc1c[nH]c2ccccc12)C(=O)N[C@H]1CSSC[C@@H](C(=O)O)NC(=O)[C@H](CCCNC(=N)N)NC(=O)[C@H](CCCNC(=N)N)NC(=O)[C@H](CC(=O)O)NC(=O)[C@H](C)NC(=O)[C@H](CCCNC(=N)N)NC1=O (H-VWCRADRRC-OH; disulfide 3-9; N-terminus and C-terminus assumed)
inhibition of the interaction between integrin αIIbβ3 and fibrinogen (in words) [1]: inhibited; also recorded: strongly inhibited
inhibition of platelet aggregation ex vivo (in words) [2]: inhibited; also recorded: strongly inhibited
inhibition of platelet aggregation at 9 μM ([2]; peptide 9 μM): the only peptide to inhibit platelet aggregation
inhibition of platelet aggregation at 90 μM [2]: completely inhibited
inhibition of the binding of the selected RAD antibodies to integrin αIIbβ3 [3]: inhibited

Molecule: CCCCS(=O)(=O)N[C@@H](Cc1ccc(OCCCCC2CCNCC2)cc1)C(=O)O [tirofiban]
reported integrin specificity / cross-reactivity [7]: αIIbβ3-specific

Molecule: CC(C)[C@H](N)C(=O)N[C@H](C(=O)N[C@H]1CSSC[C@@H](C(=O)O)NC(=O)[C@H](CCCNC(=N)N)NC(=O)[C@H](CCCNC(=N)N)NC(=O)[C@H](CC(=O)O)NC(=O)[C@H](C)NC(=O)[C@H](CCCNC(=N)N)NC1=O)C(C)C (H-VVCRADRRC-OH; disulfide 3-9; N-terminus and C-terminus assumed)
inhibition of the interaction between integrin αIIbβ3 and fibrinogen (in words) [1]: inhibited; also recorded: strongly inhibited
inhibition of platelet aggregation ex vivo (in words) [2]: inhibited; also recorded: strongly inhibited
inhibition of platelet aggregation at 90 μM [2]: completely inhibited
inhibition of the binding of the selected RAD antibodies to integrin αIIbβ3 [3]: inhibited

— US8586033B2, “Integrin αIIbβ3 specific antibodies and peptides” (The Scripps Research Institute, priority 2003, dated 2013)
